Data on 14 compounds can be found in patent publication US11661403B2, “Oxadiazole compounds” (Vivace Therapeutics, Inc., priority 2018, dated 2023).

In the first experiment the test system is 8XTBD luciferase reporter (YAP) in HEK293T cells. Put plainly: YAP Reporter Assay. The class given is cell-based. As to conditions: Homo sapiens, HEK-293T, 24 h, read-out: Firefly Luciferase IC50 (μM). (In general: A reporter such as luciferase makes a cellular process visible.)
A word on the IC50: it is the concentration that inhibits the measured activity by half. `CN(C)C(=O)c1nnc(-c2ccccc2Nc2ccc(C(F)(F)F)cc2)o1` [Compound 194, N,N-dimethyl-5-(2-((4-(trifluoromethyl)phenyl)amino)phenyl)-1,3,4-oxadiazole-2-carboxamide]: the IC50 lay in the range of 1 to 5 µM.
For the compound `CCOC(=O)C(O)(C(=O)OCC)c1nnc(-c2ccccc2Nc2ccc(C(F)(F)F)cc2)o1` [Compound 200, diethyl 2-hydroxy-2-(5-(2-((4-(trifluoromethyl)phenyl)amino)phenyl)-1,3,4-oxadiazol-2-yl)malonate], the IC50 lay within 0.1 to 1 µM.

The experiment is the same for the next values; noted with them: Homo sapiens, HEK-293T; HEK293T cells stably transfected with 8XTBD luciferase reporter and pRLTK; 24-hr incubation; top concentration 3 μM; read-out: Firefly Luciferase IC50.
With `COCCNC(=O)c1nnc(-c2ccccc2Nc2ccc(C(F)(F)F)cc2)o1` [Compound 190, N-(2-methoxyethyl)-5-(2-((4-(trifluoromethyl)phenyl)amino)phenyl)-1,3,4-oxadiazole-2-carboxamide], the half-maximal inhibitory concentration (IC50) is less than 0.1 µM.
Same read-out and setting: the same measure for `O=C(NCCO)c1nnc(-c2ccccc2Nc2ccc(C(F)(F)F)cc2)o1` [Compound 191, N-(2-hydroxyethyl)-5-(2-((4-(trifluoromethyl)phenyl)amino)phenyl)-1,3,4-oxadiazole-2-carboxamide]: less than 0.1 µM.
Still for that read-out and setting: the same measure for `CON(C)C(=O)c1nnc(-c2ccccc2Nc2ccc(C(F)(F)F)cc2)o1` [Compound 192, N-methoxy-N-methyl-5-(2-((4-(trifluoromethyl)phenyl)amino)phenyl)-1,3,4-oxadiazole-2-carboxamide]: 0.1 to 1 µM; for `O=C(NC1CC1)c1nnc(-c2ccccc2Nc2ccc(C(F)(F)F)cc2)o1` [Compound 195, N-cyclopropyl-5-(2-((4-(trifluoromethyl)phenyl)amino)phenyl)-1,3,4-oxadiazole-2-carboxamide]: 0.1 to 1 µM; for `CNC(=O)c1nnc(-c2ccccc2Nc2ccc(C(F)(F)F)cc2)o1` [Compound 198, N-methyl-5-(2-((4-(trifluoromethyl)phenyl)amino)phenyl)-1,3,4-oxadiazole-2-carboxamide]: less than 0.1 µM.
In the case of `CC1(C)OCC(O)(c2nnc(-c3ccccc3Nc3ccc(C(F)(F)F)cc3)o2)CO1` [Compound 199, 2,2-dimethyl-5-(5-(2-((4-(trifluoromethyl)phenyl)amino)phenyl)-1,3,4-oxadiazol-2-yl)-1,3-dioxan-5-ol], the IC50 lay in the range of 1 to 5 µM.
Turning to `OCC(O)(CO)c1nnc(-c2ccccc2Nc2ccc(C(F)(F)F)cc2)o1` [Compound 201, 2-(5-(2-((4-(trifluoromethyl)phenyl)amino)phenyl)-1,3,4-oxadiazol-2-yl)propane-1,2,3-triol], the IC50 is less than 0.1 µM.
With `CC(=O)OC(CO)c1nnc(-c2ccccc2Nc2ccc(C(F)(F)F)cc2)o1` (centres unmarked) [Compound 202, 2-hydroxy-1-(5-(2-((4-(trifluoromethyl)phenyl)amino)phenyl)-1,3,4-oxadiazol-2-yl)ethyl acetate], the IC50 was less than 0.1 µM.
On the same count and under the same terms, the same measure for `OC(CF)c1nnc(-c2ccccc2Nc2ccc(C(F)(F)F)cc2)o1` (centres unmarked) [Compound 203, 2-fluoro-1-(5-(2-((4-(trifluoromethyl)phenyl)amino)phenyl)-1,3,4-oxadiazol-2-yl)ethan-1-ol]: less than 0.1 µM.
`FC(F)(F)c1ccc(Nc2ccc(Br)cc2-c2nnc(C3CC3)o2)cc1` [Compound 204, 4-bromo-2-(5-cyclopropyl-1,3,4-oxadiazol-2-yl)-N-(4-(trifluoromethyl)phenyl)aniline]: the IC50 lay within 0.1 to 1 µM.

Staying with this experiment, now noted: Homo sapiens, HEK-293T; […]; 24-hr incubation; top concentration 3 μM; read-out: Firefly Luciferase IC50.
Turning to `CC(C)NC(=O)c1nnc(-c2ccccc2Nc2ccc(C(F)(F)F)cc2)o1` [Compound 196, N-isopropyl-5-(2-((4-(trifluoromethyl)phenyl)amino)phenyl)-1,3,4-oxadiazole-2-carboxamide], the IC50 lay within 0.1 to 1 µM.
As for `CCNC(=O)c1nnc(-c2ccccc2Nc2ccc(C(F)(F)F)cc2)o1` [Compound 197, N-ethyl-5-(2-((4-(trifluoromethyl)phenyl)amino)phenyl)-1,3,4-oxadiazole-2-carboxamide], the IC50 was less than 0.1 µM.
